Assay results: patent publication US8114886B2, “Pyridylmethylsulfone derivative” (Daiichi Sankyo Company, Limited, priority 2005, dated 2012)
pEC50: −log10 of the molar value.

System: β-amyloid protein (Aβ) secreted by E35 cells (H4 cells with APP751 gene)
Experiment: Screening system using E35 cells for inhibition of production/secretion of β-amyloid protein (sandwich ELISA of Aβ in culture medium)
Format: cell-based, human
Conditions: Homo sapiens, 24 hours with compound, Aβ in culture supernatant by ELISA, read-out: Inhibitory Activity for Production of A(EC50)
Method: The activity of the compound inhibiting β-amyloid protein production was measured on E35 cells prepared by introducing APP751 gene, a gene of a human wild type β-amyloid protein precursor protein, to human glioma cells (H4 cells), by quantifying the amount of β-amyloid protein (Aβ) secreted to the culture medium by means of a sandwich type Enzyme-Linked Immunosorbent Assay (ELISA) method.
That is, E35 cells inoculated on a 96-well plate were cultured in an incubator at 37° C. which was maintained at equilibrium with 5% carbon dioxide, using Dulbecco's Modified Eagle's Medium containing inactivated 10% fetal bovine serum as the culture medium. After 24 hours from the inoculation, a test compound dissolved in a DMSO solution was added. The DMSO solution of the test compound was prepared at a concentration of 2000 times of the final concentration, such that the DMSO concentration in the culture medium would be 0.05%. After culturing for another 24 hours, the culture supernatant was recovered, and this was added to a 96-well plate for ELISA onto which a monoclonal antibody against Aβ, 25-1, was solid-phased. The plate was incubated at 4° C. for 16 to 20 hours. The plate was washed with phosphate buffer solution (pH 7.4), and then a biotinylated monoclonal antibody against Aβ, MA32-40, was added thereto. The plate was left to stand at 4° C. for 2 hours. The plate was washed again with phosphate buffer solution, and then alkaline phosphatase-conjugated streptavidin was added to conjugate streptavidin to biotin. Subsequently, the plate was washed with phosphate buffer solution. To this, Blue Phos (Kirkegaard & Perry Laboratories, Inc.) was added. After incubating the plate for an appropriate time, the reaction was terminated with an acid, and the absorbance for each well was measured. The amount of Aβ contained in the culture supernatant was determined from a calibration curve which was produced separately, and the amount was compared with that of control cells to which the compound was not added. Thus, the concentration at which 50% of the Aβ production is inhibited (EC50 value) was calculated. In addition, the 25-1 antibody and MA32-40 antibody used in ELISA were mouse monoclonal antibodies derived from the hybridoma cell clone lines, which were each produced and selected according to a standard method using Aβ25-35 and Aβ1-8 as antigens, respectively, and which specifically recognize their respective antigens. […]
The scores indicate ++++ for the case where EC50 was 5 nM or less; +++ for the case where EC50 was 5 to 50 nM; ++ for the case where EC50 was 50 to 500 nM; and + for the case where EC50 was 500 nM to 5 μM.

Structure (SMILES) | pEC50
Cc1cc(C(N)=O)ncc1C(c1c(F)ccc(F)c1F)S(=O)(=O)c1ccc(F)cc1 (stereo not shown) [Example 39, 5-[[(4-Fluorophenyl)sulfonyl](2,3,6-trifluorophenyl)methyl]-4-methylpyridine-2-carboxamide] | ≥ 8.30
Cc1cc(C(=O)N(C)C)ncc1C(c1c(F)ccc(F)c1F)S(=O)(=O)c1ccc(F)cc1 (stereo not shown) [Example 36A, 5-[[(4-Fluorophenyl)sulfonyl](2,3,6-trifluorophenyl)methyl]-N,N,4-trimethylpyridine-2-carboxamide] | 7.30 to 8.30
Cc1cc(C(N)=O)ncc1C(c1c(F)ccc(F)c1F)S(=O)(=O)c1ccccc1 (stereo not shown) [Example 105, 4-Methyl-5-[(phenylsulfonyl)(2,3,6-trifluorophenyl)methyl]pyridine-2-carboxamide] | ≥ 8.30
Cc1cc(C(=O)NCCO)ncc1C(c1cc(F)ccc1F)S(=O)(=O)c1ccc(C(F)(F)F)nc1 (stereo not shown) [Example 30, 5-[(2,5-Difluorophenyl) [[6-(trifluoromethyl)pyridin-3-yl]sulfonyl]methyl]-N-(2-hydroxyethyl)-4-methylpyridine-2-carboxamide] | ≥ 8.30
CNC(=O)c1cc(C)c(C(c2cc(F)ccc2F)[S+]([O-])c2ccc(F)cc2)cn1 (stereo not shown) [Example 21, 5-[(2,5-Difluorophenyl)[(4-fluorophenyl)sulfinyl]methyl]-N,4-dimethylpyridine-2-carboxamide] | 7.30 to 8.30
Cc1cc(C(N)=O)ncc1C(c1cc(F)ccc1F)[S+]([O-])c1ccc(F)cc1 (stereo not shown) [Example 24, 5-[(2,5-Difluorophenyl) [(4-fluorophenyl)sulfinyl]methyl]-4-methylpyridine-2-carboxamide] | 7.30 to 8.30
Cc1cc(C(N)=O)ncc1C(c1cc(F)ccc1F)S(=O)(=O)c1ccc(F)cc1 (stereo not shown) [Example 15, 5-[(2,5-Difluorophenyl)[(4-fluorophenyl)sulfonyl]methyl]-4-methylpyridine-2-carboxamide] | ≥ 8.30
Cc1cc(C(=O)NCCO)ncc1C(c1cc(F)ccc1F)S(=O)(=O)c1ccccc1 (stereo not shown) [Example 59, 5-[(2,5-Difluorophenyl)(phenylsulfonyl)methyl]-N-(2-hydroxyethyl)-4-methylpyridine-2-carboxamide] | 7.30 to 8.30
Cc1cc(C(=O)NCCO)ncc1C(c1cc(F)ccc1F)S(=O)(=O)c1ccc(C(F)(F)F)cn1 (stereo not shown) [Example 55, 5-[(2,5-Difluorophenyl)[[5-(trifluoromethyl)pyridin-2-yl]sulfonyl]methyl]-N-(2-hydroxyethyl)-4-methylpyridine-2-carboxamide] | 6.30 to 7.30
Cc1cc(S(=O)(=O)C(c2cnc(C(=O)NCCO)cc2C)c2cc(F)ccc2F)ccc1Cl (stereo not shown) [Example 67, 5-[[(4-Chloro-3-methylphenyl)sulfonyl](2,5-difluorophenyl)methyl]-N-(2-hydroxyethyl)-4-methylpyridine-2-carboxamide] | ≥ 8.30
Cc1ccc(S(=O)(=O)C(c2cnc(C(=O)NCCO)cc2C)c2cc(F)ccc2F)cc1 (stereo not shown) [Example 63, 5-[(2,5-Difluorophenyl)[(4-methylphenyl)sulfonyl]methyl]-N-(2-hydroxyethyl)-4-methylpyridine-2-carboxamide] | ≥ 8.30
Cc1cc(C(N)=O)ncc1C(c1c(F)ccc(F)c1F)[S+]([O-])c1ccc(F)cc1 (stereo not shown) [Example 38, 5-[[(4-Fluorophenyl)sulfinyl](2,3,6-trifluorophenyl)methyl]-4-methylpyridine-2-carboxamide] | 7.30 to 8.30
Cc1cc(C(N)=O)ncc1C(c1cc(F)ccc1F)S(=O)(=O)c1ccc(C(F)(F)F)nc1 (stereo not shown) [Example 32, 5-[(2,5-Difluorophenyl)[[6-(trifluoromethyl)pyridin-3-yl]sulfonyl]methyl]-4-methylpyridine-2-carboxamide] | 7.30 to 8.30
Cc1cc(C(=O)N(C)C)ncc1C(c1cc(F)ccc1F)S(=O)(=O)c1ccc(C(F)(F)F)nc1 (stereo not shown) [Example 28A, 5-[(2,5-Difluorophenyl) [[6-(trifluoromethyl)pyridin-3-yl]sulfonyl]methyl]-N,N,4-trimethylpyridine-2-carboxamide] | 5.30 to 6.30
Cc1cc(C(=O)N(C)C)ncc1C(c1cc(F)ccc1F)[S+]([O-])c1ccc(C(F)(F)F)nc1 (stereo not shown) [Example 28B, 5-[(2,5-difluorophenyl)[[6-(trifluoromethyl)pyridin-3-yl]sulfinyl]methyl]-N,N,4-trimethylpyridine-2-carboxamide] | 5.30 to 6.30
CC(=O)NCCNC(=O)c1cc(C)c(C(c2cc(F)ccc2F)S(=O)(=O)c2ccc(F)cc2)cn1 (stereo not shown) [Example 83, N-[2-(acetylamino)ethyl]-5-[(2,5-difluorophenyl)[(4-fluorophenyl)sulfonyl]methyl]-4-methylpyridine-2-carboxamide] | ≥ 8.30
Cc1cc(C(=O)N(C)C)ncc1C(c1c(F)ccc(F)c1F)[S+]([O-])c1ccc(F)cc1 (stereo not shown) [Example 36B, 5-[[(4-fluorophenyl)sulfinyl](2,3,6-trifluorophenyl)methyl]-N,N,4-trimethylpyridine-2-carboxamide] | 5.30 to 6.30
Cc1cc(S(=O)(=O)C(c2cnc(C(=O)NCCO)cc2C)c2cc(F)ccc2F)ccc1F (stereo not shown) [Example 71, 5-[(2,5-Difluorophenyl)[(4-fluoro-3-methylphenyl)sulfonyl]methyl]-N-(2-hydroxyethyl)-4-methylpyridine-2-carboxamide] | 7.30 to 8.30

System: not given
Experiment: not given
Conditions: not given

Structure (SMILES) | melting point
Cc1cc(C(=O)N(C)CO)ncc1C(c1cc(F)ccc1F)S(=O)(=O)c1ccc(F)cc1 (stereo not shown) [Example 133, 5-[(2,5-Difluorophenyl)((4-fluorophenyl)sulfonyl)methyl]-N-(hydroxymethyl)-N,4-dimethylpyridine-2-carboxamide] | 184 to 186 °C
Cc1cc(C(=S)N(C)C)ncc1C(c1cc(F)ccc1F)S(=O)(=O)c1ccc(F)cc1 (stereo not shown) [Example 92, 5-[(2,5-Difluorophenyl)[(4-fluorophenyl)sulfonyl]methyl]-N,N,4-trimethylpyridine-2-carbothioamide] | 161 to 164 °C
Cc1cc(C(=O)O)ncc1C(c1cc(F)ccc1F)S(=O)(=O)c1ccc(Cl)cc1 (stereo not shown) [Example 3, 5-[[(4-Chlorophenyl)sulfonyl](2,5-difluorophenyl)methyl]-4-methylpyridine-2-carboxylic acid] | 208 to 209 °C
Cc1cc(C(=O)NCO)ncc1C(c1c(F)ccc(F)c1F)S(=O)(=O)c1ccc(C(F)F)nc1 (stereo not shown) [Example 136, 5-[[[6-(Difluoromethyl)pyridin-3-yl]sulfonyl](2,3,6-trifluorophenyl)methyl]-N-(1-hydroxymethyl)-4-methylpyridine-2-carboxamide] | 181 to 183 °C
Cc1cc(C(=O)N2CC(O)C2)ncc1C(c1cc(F)ccc1F)S(=O)(=O)c1ccc(F)cc1 (stereo not shown) [Example 88, 1-[[5-[(2,5-Difluorophenyl)[(4-fluorophenyl)sulfonyl]methyl]-4-methylpyridin-2-yl]carbonyl]azetidin-3-ol] | 219 to 221 °C
CCOC(=O)c1cc(C)c(C(c2cc(F)ccc2F)S(=O)(=O)c2ccc(F)cc2)cn1 (stereo not shown) [Example 91, Diethyl 5-[(2,5-difluorophenyl)[(4-fluorophenyl)sulfonyl]methyl]-4-methylpyridine-2-carboxylic acid] | 151 to 153 °C
Cc1cc(C(=O)NCOCc2cccnc2)ncc1C(c1cc(F)ccc1F)S(=O)(=O)c1ccc(F)cc1 (stereo not shown) [Example 113, 5-[(2,5-Difluorophenyl) [(4-fluorophenyl)sulfonyl]methyl]-4-methyl-N-[(pyridin-3-ylmethoxy)methyl]pyridine-2-carboxamide] | 121 to 123 °C
Cc1cc(C(=O)NCS)ncc1C(c1cc(F)ccc1F)S(=O)(=O)c1ccc(F)cc1 (stereo not shown) [Example 132, 5-[(2,5-Difluorophenyl)[(4-fluorophenyl)sulfonyl]methyl]-N-(mercaptomethyl)-4-methylpyridine-2-carboxamide] | 190 to 193 °C
Cc1cc(C(=O)NCCO)ncc1C(c1cc(F)ccc1F)S(=O)(=O)c1cc(F)cc(F)c1 (stereo not shown) [Example 100, 5-[(2,5-Difluorophenyl)[(3,5-difluorophenyl)sulfonyl]methyl]-N-(2-hydroxyethyl)-4-methylpyridine-2-carboxamide] | 82 to 84 °C
Cc1cc(C(=O)NCO)ncc1C(c1c(F)ccc(F)c1F)S(=O)(=O)c1ccc(C(F)(F)F)cc1 (stereo not shown) [Example 129, N-(hydroxymethyl)-4-methyl-5-[[[4-(trifluoromethyl)phenyl]sulfonyl](2,3,6-trifluorophenyl)methyl]pyridine-2-carboxamide] | 190 to 192 °C
